Key:
[1] = biological target: Serine/threonine-protein kinase LATS2 (Homo sapiens) (UniProt Q9NRM7); conditions: Compound concentration 1000.0 nM
[2] = test system: Tyrosine-protein kinase ABL1 (Homo sapiens), P00519 [F317L]; conditions: Compound concentration 1000.0 nM
[3] = biological target: Type-1 angiotensin II receptor (Homo sapiens) (UniProt P30556); test: AT1 (h) Eurofins-Cerep binding assay; parameters: ligand concentration 0.05 nM; conditions: filed as antagonist, Compound concentration 10.0 uM
[4] = species: Rattus norvegicus; conditions: Compound concentration 10.0 uM
[5] = biological target: Ephrin type-A receptor 3 (Homo sapiens) (UniProt P29320); conditions: Compound concentration 1000.0 nM
[6] = biological target: Cyclin-dependent kinase 5 (Homo sapiens) (UniProt Q00535); conditions: Compound concentration 1000.0 nM
[7] = biological target: Mitogen-activated protein kinase kinase kinase 6 (Homo sapiens) (UniProt O95382); conditions: Compound concentration 1000.0 nM
[8] = biological target: Mu-type opioid receptor (Homo sapiens) (UniProt P35372); test: mu (MOP) (h) Eurofins-Cerep binding assay; parameters: ligand concentration 0.5 nM; conditions: filed as agonist, Compound concentration 10.0 uM
[9] = biological target: Glutamate NMDA receptor (Rattus norvegicus) (UniProt P35439+Q00959+Q00960+Q00961+Q62645+Q8VHN2+Q9R1M7); test: PCP Eurofins-Cerep binding assay; type: protein-complex assay; parameters: ligand concentration 10 nM; conditions: filed as antagonist, Compound concentration 10.0 uM
[10] = biological target: Serine/threonine-protein kinase BRSK2 (Homo sapiens) (UniProt Q8IWQ3); conditions: Compound concentration 1000.0 nM
[11] = biological target: Serine/threonine-protein kinase 4 (Homo sapiens) (UniProt Q13043); conditions: Compound concentration 1000.0 nM
[12] = biological target: Casein kinase I isoform gamma-3 (Homo sapiens) (UniProt Q9Y6M4); conditions: Compound concentration 1000.0 nM
[13] = biological target: Misshapen-like kinase 1 (Homo sapiens) (UniProt Q8N4C8); conditions: Compound concentration 1000.0 nM
[14] = biological target: Activin receptor type-2B (Homo sapiens) (UniProt Q13705); conditions: Compound concentration 1000.0 nM
[15] = biological target: cGMP-dependent protein kinase 2 (Homo sapiens) (UniProt Q13237); conditions: Compound concentration 1000.0 nM
[16] = test system: Receptor-type tyrosine-protein kinase FLT3 (Homo sapiens), P36888 [N841I]; conditions: Compound concentration 1000.0 nM
[17] = biological target: cAMP-dependent protein kinase catalytic subunit PRKX (Homo sapiens) (UniProt P51817); conditions: Compound concentration 1000.0 nM
[18] = biological target: Rho-associated protein kinase 1 (Homo sapiens) (UniProt Q13464); conditions: Compound concentration 1000.0 nM
[19] = test system: Proto-oncogene tyrosine-protein kinase receptor Ret (Homo sapiens), P07949 [M918T]; conditions: Compound concentration 1000.0 nM
[20] = biological target: TRAF2 and NCK-interacting protein kinase (Homo sapiens) (UniProt Q9UKE5); conditions: Compound concentration 1000.0 nM
[21] = biological target: Aurora kinase C (Homo sapiens) (UniProt Q9UQB9); conditions: Compound concentration 1000.0 nM
[22] = GPCRScan assay: inhibition of GABA/PBR; parameters: species or system Rattus norvegicus; radioligand conc. used [nm] 0.3 – 2.0, parental cells brain tissue
[23] = biological target: Mitogen-activated protein kinase 9 (Homo sapiens) (UniProt P45984); conditions: Compound concentration 1000.0 nM
[24] = biological target: BDNF/NT-3 growth factors receptor (Homo sapiens) (UniProt Q16620); conditions: Compound concentration 1000.0 nM
[25] = biological target: Serine/threonine-protein kinase 32C (Homo sapiens) (UniProt Q86UX6); conditions: Compound concentration 1000.0 nM
[26] = biological target: Discoidin domain-containing receptor 2 (Homo sapiens) (UniProt Q16832); conditions: Compound concentration 1000.0 nM
[27] = biological target: Serine/threonine-protein kinase WNK3 (Homo sapiens) (UniProt Q9BYP7); conditions: Compound concentration 1000.0 nM
[28] = biological target: Tyrosine-protein kinase receptor Tie-1 (Homo sapiens) (UniProt P35590); conditions: Compound concentration 1000.0 nM
[29] = biological target: T1, Alpha-2B adrenergic receptor (Homo sapiens) (UniProt P18089); conditions: Compound concentration 10.0 uM
T1 sequence (whole entry): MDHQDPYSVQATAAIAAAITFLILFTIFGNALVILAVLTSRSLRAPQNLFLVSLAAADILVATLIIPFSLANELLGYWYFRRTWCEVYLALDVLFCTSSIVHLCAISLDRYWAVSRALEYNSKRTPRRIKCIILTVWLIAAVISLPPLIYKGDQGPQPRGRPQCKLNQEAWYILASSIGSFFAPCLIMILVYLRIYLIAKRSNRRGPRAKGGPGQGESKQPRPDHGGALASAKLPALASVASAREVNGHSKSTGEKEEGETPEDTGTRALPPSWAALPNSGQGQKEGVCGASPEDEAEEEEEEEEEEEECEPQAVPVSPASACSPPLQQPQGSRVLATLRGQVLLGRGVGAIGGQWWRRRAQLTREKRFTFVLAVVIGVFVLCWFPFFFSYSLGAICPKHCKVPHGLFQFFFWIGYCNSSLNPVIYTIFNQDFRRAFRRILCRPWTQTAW

[30] = biological target: Tyrosine-protein kinase Fer (Homo sapiens) (UniProt P16591); conditions: Compound concentration 1000.0 nM
[31] = test system: Mast/stem cell growth factor receptor Kit (Homo sapiens), P10721 [V559D,T670I]; conditions: Compound concentration 1000.0 nM
[32] = biological target: Serine/threonine-protein kinase Chk1 (Homo sapiens) (UniProt O14757); conditions: Compound concentration 1000.0 nM
[33] = biological target: Cyclin-dependent kinase 7 (Homo sapiens) (UniProt P50613); conditions: Compound concentration 1000.0 nM
[34] = test system: Serine/threonine-protein kinase B-raf (Homo sapiens), P15056 [V600E]; conditions: Compound concentration 1000.0 nM
[35] = biological target: AP2-associated protein kinase 1 (Homo sapiens) (UniProt Q2M2I8); conditions: Compound concentration 1000.0 nM
[36] = biological target: Tyrosine-protein kinase ZAP-70 (Homo sapiens) (UniProt P43403); conditions: Compound concentration 1000.0 nM
[37] = biological target: Non-receptor tyrosine-protein kinase TNK1 (Homo sapiens) (UniProt Q13470); conditions: Compound concentration 1000.0 nM

Chain of cGMP-dependent protein kinase 2 (Homo sapiens) (Q13237 whole entry): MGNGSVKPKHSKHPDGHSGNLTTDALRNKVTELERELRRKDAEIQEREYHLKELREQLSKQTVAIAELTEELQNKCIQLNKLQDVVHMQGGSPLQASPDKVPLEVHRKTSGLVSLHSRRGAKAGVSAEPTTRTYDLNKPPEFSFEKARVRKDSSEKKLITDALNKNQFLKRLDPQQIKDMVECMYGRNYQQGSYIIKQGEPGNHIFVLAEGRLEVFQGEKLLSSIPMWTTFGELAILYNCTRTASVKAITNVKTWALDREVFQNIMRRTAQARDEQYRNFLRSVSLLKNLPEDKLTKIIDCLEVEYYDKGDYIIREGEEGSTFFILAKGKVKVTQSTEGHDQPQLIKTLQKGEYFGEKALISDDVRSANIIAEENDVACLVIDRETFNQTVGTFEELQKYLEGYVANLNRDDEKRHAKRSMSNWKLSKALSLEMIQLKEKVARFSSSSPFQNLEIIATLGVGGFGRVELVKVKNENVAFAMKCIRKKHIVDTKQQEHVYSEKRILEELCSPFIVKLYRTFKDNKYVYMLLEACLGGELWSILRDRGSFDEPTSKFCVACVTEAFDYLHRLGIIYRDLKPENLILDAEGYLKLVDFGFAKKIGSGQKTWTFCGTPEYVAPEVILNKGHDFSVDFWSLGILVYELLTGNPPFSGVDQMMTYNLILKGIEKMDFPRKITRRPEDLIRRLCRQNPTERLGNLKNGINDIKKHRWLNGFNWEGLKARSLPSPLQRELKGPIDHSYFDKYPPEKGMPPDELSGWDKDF
Chain of Tyrosine-protein kinase ABL1 (Homo sapiens), P00519 [F317L] (P00519 whole entry F317L): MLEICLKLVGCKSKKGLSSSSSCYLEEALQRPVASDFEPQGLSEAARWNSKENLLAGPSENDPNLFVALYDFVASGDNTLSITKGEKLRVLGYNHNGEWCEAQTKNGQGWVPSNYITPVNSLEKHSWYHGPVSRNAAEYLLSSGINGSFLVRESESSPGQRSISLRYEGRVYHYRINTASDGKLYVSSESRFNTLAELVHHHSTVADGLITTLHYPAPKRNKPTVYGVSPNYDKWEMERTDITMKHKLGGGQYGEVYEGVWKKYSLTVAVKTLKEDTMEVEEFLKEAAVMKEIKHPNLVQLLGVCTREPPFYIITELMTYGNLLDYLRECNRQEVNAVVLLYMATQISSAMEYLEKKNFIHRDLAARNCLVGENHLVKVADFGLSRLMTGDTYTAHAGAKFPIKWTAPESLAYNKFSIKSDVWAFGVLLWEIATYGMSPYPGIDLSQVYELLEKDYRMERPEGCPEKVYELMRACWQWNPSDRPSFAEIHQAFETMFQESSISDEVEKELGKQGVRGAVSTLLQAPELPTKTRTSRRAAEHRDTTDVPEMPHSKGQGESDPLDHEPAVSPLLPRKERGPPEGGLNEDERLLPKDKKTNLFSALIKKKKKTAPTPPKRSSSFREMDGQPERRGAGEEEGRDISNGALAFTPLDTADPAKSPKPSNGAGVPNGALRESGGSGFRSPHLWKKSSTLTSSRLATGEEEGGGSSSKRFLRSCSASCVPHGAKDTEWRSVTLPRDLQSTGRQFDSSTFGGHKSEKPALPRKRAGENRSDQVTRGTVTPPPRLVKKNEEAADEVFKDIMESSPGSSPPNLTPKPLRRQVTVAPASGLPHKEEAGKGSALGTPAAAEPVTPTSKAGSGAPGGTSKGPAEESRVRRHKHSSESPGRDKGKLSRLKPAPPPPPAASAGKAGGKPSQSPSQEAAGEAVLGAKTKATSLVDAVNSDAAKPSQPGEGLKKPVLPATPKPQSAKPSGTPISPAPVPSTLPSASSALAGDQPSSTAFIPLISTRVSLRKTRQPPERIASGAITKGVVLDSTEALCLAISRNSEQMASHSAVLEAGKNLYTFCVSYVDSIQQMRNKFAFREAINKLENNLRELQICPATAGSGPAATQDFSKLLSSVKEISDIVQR
Chain of Misshapen-like kinase 1 (Homo sapiens) (Q8N4C8 whole entry, looked up): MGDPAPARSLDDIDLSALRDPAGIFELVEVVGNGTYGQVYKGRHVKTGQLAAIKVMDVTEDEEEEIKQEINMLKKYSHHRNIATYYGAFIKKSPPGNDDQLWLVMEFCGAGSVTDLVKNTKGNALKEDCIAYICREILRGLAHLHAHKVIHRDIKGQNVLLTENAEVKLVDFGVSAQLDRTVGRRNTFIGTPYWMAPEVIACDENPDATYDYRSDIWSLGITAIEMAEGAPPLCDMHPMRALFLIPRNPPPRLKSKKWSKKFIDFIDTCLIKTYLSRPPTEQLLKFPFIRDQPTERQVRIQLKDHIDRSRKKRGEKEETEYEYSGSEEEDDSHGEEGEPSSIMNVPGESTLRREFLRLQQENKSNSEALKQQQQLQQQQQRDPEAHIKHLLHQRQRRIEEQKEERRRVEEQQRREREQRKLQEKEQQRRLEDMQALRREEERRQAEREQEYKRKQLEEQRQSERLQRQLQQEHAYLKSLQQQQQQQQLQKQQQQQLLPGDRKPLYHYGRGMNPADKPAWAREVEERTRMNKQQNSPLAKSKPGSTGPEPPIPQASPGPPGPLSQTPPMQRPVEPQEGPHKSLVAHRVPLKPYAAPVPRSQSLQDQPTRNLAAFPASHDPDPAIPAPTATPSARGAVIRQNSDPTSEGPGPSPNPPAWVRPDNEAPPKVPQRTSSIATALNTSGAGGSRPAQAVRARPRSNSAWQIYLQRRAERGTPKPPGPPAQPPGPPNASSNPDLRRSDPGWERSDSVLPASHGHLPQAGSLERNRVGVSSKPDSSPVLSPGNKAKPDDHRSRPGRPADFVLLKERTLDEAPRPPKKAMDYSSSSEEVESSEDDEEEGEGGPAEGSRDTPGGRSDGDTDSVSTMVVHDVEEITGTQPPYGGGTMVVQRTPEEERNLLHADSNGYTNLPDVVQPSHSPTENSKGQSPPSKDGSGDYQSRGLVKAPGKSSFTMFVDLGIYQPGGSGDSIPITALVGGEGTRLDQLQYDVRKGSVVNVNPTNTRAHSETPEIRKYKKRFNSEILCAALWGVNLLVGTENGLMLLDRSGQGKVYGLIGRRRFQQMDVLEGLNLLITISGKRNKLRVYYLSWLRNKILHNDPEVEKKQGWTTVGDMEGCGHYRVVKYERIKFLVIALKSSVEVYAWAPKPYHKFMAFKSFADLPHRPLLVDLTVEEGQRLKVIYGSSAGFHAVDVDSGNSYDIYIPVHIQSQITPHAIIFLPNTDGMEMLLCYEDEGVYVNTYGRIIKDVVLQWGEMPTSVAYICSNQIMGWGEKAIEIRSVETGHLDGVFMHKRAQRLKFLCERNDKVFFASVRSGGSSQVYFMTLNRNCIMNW
Chain of Serine/threonine-protein kinase Chk1 (Homo sapiens) (O14757 whole entry): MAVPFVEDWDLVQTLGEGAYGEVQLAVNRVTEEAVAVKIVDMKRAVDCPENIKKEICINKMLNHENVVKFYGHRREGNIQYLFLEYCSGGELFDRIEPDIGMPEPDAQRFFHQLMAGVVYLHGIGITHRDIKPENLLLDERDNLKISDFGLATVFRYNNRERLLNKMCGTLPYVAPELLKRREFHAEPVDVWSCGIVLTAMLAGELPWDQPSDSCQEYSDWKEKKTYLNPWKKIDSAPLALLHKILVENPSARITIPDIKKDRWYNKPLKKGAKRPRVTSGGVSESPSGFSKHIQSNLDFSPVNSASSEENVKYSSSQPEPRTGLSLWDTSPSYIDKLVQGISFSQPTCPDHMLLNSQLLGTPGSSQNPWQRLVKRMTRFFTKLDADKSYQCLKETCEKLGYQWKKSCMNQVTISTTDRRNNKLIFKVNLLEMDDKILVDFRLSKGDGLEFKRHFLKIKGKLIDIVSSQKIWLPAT
Chain of Serine/threonine-protein kinase B-raf (Homo sapiens), P15056 [V600E] (P15056 whole entry V600E): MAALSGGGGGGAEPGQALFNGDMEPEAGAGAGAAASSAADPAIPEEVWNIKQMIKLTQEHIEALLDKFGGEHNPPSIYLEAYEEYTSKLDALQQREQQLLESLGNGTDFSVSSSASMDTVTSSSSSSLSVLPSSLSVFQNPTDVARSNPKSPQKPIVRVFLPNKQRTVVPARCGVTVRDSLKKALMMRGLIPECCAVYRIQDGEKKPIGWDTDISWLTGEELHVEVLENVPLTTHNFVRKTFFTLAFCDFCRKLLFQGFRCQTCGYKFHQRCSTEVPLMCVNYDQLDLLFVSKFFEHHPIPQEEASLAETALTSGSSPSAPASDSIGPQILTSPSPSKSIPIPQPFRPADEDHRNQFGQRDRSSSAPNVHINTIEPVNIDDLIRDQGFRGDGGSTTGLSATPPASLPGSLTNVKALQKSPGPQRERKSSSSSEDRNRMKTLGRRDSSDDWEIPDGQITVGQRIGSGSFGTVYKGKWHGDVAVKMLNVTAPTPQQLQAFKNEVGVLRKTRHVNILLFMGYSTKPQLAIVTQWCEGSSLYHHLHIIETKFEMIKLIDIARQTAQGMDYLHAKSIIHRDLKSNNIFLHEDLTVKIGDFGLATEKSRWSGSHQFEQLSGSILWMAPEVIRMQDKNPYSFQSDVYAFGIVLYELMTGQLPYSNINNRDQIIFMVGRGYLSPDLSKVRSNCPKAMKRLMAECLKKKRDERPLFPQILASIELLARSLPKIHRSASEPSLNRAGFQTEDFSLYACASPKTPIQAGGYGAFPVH
Chain of Tyrosine-protein kinase ZAP-70 (Homo sapiens) (P43403 whole entry): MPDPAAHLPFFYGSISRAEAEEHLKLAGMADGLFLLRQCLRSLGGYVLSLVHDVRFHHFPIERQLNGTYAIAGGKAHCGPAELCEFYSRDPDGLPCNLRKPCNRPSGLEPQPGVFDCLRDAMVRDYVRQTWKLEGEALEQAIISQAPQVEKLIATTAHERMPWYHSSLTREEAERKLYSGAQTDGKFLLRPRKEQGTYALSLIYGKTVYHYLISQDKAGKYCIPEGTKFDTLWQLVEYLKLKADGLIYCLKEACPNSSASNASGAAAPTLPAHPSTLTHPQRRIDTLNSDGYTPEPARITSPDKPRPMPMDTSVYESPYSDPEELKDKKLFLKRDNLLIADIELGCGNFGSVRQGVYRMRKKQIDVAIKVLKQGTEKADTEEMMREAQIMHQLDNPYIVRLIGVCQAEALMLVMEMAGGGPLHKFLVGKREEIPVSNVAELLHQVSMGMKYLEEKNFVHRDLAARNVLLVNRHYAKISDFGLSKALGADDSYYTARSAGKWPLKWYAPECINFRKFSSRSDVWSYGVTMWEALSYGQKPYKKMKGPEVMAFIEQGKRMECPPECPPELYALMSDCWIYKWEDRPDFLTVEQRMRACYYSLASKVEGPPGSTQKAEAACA

SMILES	residual activity [1] [%]	residual activity [2] [%]	% Inhibition of Control Specific Binding (Mean n=2) [3] [%]	inhibition [4] [%]	residual activity [5] [%]	residual activity [6] [%]	residual activity [7] [%]	% Inhibition of Control Specific Binding (Mean n=2) [8] [%]	% Inhibition of Control Specific Binding (Mean n=2) [9] [%]	residual activity [10] [%]	residual activity [11] [%]	residual activity [12] [%]	residual activity [13] [%]	residual activity [14] [%]	residual activity [15] [%]	residual activity [16] [%]	residual activity [17] [%]	residual activity [18] [%]	residual activity [19] [%]	residual activity [20] [%]	further results
COc1ccc2c(c1)O[C@@H](c1ccc(OC)c(OC)c1)C[C@H]2NC(=O)C1(c2ccc3c(c2)OC(F)(F)O3)CC1 [A-1596586]	100	76	-1.1	90.5	91	100	81	9.8	-6.1	100	79	100	77	96	96	100	83	89	90	71	residual activity [21]: 100%; Ki [22]: 19.6 nM; pKi [22]: 7.71; residual activity [23]: 83%; residual activity [24]: 91%; residual activity [25]: 100%; residual activity [26]: 98%; residual activity [27]: 100%; residual activity [28]: 100%; inhibition [29]: 37.5%; residual activity [30]: 100%; residual activity [31]: 99%; residual activity [32]: 100%; residual activity [33]: 80%; residual activity [34]: 100%; residual activity [35]: 91%; residual activity [36]: 71%; residual activity [37]: 100%
COc1ccc2c(c1)O[C@H](c1ccc(OC)c(OC)c1)C[C@@H]2NC(=O)C1(c2ccc3c(c2)OC(F)(F)O3)CC1 [A-1596584]	89	100	12.3	66.6	100	100	81	11.3	4	88	95	100	100	100	89	100	100	84	99	100	residual activity [21]: 100%; Ki [22]: 218 nM; pKi [22]: 6.66; residual activity [23]: 92%; residual activity [24]: 100%; residual activity [25]: 84%; residual activity [26]: 94%; residual activity [27]: 100%; residual activity [28]: 100%; inhibition [29]: 19.6%; residual activity [30]: 100%; residual activity [31]: 100%; residual activity [32]: 100%; residual activity [33]: 85%; residual activity [34]: 93%; residual activity [35]: 100%; residual activity [36]: 93%; residual activity [37]: 97%

From ChEMBL document CHEMBL4507262, “Data for DCP probe A-1596586” (2021)
